# Patent publication US20140350081A1, “INSECT G-COUPLED RECEPTORS USEFUL AS TARGETS FOR INSECTICIDES AND COMPOUNDS AND REAGENTS IDENTIFIED USING THE SAME” (priority 2011, published 2014)
# Read-outs that look alike come from different tables or passages of the source.
# What was measured:
# [1] = target: T1, Isdop2 (Ixodes scapularis, UniProt A0ACM8DGL0); assay: cell-based
# [2] = system: Ae. aegypti larvae; assay: whole plant or invertebrate; type: in vivo; details: Aedes aegypti, 24 h, read-out: average larval mortality
# Procedure: Single dose-point and dose response in vivo mosquito bioassays were used to assess the toxicity of selected AaDop2 receptor antagonists identified in the chemical screen. Larvae of Ae. aegypti (Liverpool strain) were reared under standard laboratory conditions on a 12 hr day/night cycle at 75% RH and 28° C., and bioassays were conducted at room temperature (22-24° C.). Larvae were transferred from standard rearing trays into six-well tissue culture plates (Corning, Inc. Corning, N.Y.) using a small plastic pipette. Ten L4-stage larvae were included per well, each containing five ml of de-ionized water and an assigned drug concentration. Controls were conducted similarly but lacked a drug treatment. Bioassays employed a double-blind experimental design, and larval mortality was scored 24 hr following administration of drugs. Single dose-point assays were conducted using 400 μM drug and included three biological replicates each consisting of 100 larvae.
# [3] = target: T2, AaDOP2 (Aedes aegypti, UniProt H6D5H2); assay: AaDOP2 agonist screen against the LOPAC1280 library; type: cell-based; details: 10 μM compound; percent of response to 1 μM dihydrexidine
# [4] = target: T1, Isdop2; assay: cAMP accumulation in HEK 293 cells transiently expressing Isdop2; type: cell-based
# [5] = target: AaDOP1 (Aedes aegypti, UniProt H6D5H1); assay: CRELuc reporter dose-response in HEK293 cells stably expressing AaDOP1; type: cell-based
# [6] = target: T3, Isdop1 (Ixodes scapularis, UniProt A0ACM8FJJ0); assay: CRE-Luc reporter assay, HEK cells stably expressing Isdop1; type: cell-based
# [7] = target: T2, AaDOP2; assay: CRELuc reporter dose-response in HEK293 cells stably expressing AaDOP2; type: cell-based
# [8] = target: T3, Isdop1; assay: cAMP accumulation in HEK 293 cells transiently expressing Isdop1; type: cell-based
# [9] = target: T1, Isdop2; assay: CRE-Luc reporter assay, HEK cells stably expressing Isdop2; type: cell-based
# [10] = target: T2, AaDOP2; assay: cell-based
# [11] = target: T2, AaDOP2; assay: LOPAC1280 antagonist screen in HEK-CRELuc-Aadop2 cells; type: cell-based; details: 10 μM compound, 300 nM dopamine, quadruplicate
# [12] = target: T1, Isdop2; assay: cAMP accumulation confirmation assay, cells stably expressing Isdop2; type: cell-based
# [13] = target: T3, Isdop1; assay: cAMP accumulation confirmation assay, cells stably expressing Isdop1; type: cell-based
# [14] = system: Ae. aegypti L3 larvae; assay: whole plant or invertebrate; details: Aedes aegypti
# [15] = target: T2, AaDOP2; assay: HTRF cAMP accumulation concentration response assay (Cisbio Dynamic 2); type: cell-based; details: AaDOP2 expressing cells in the presence of dopamine; No Inhibition = <10% inhibition at 3 μM test compound; read-out: IC50 ± S.E.M. (nM), HTRF cAMP assay
# [16] = system: Ae. aegypti L3 larvae; details: 400 μM, three independent experiments, listed as Cis-flupenthixol
# [17] = system: adult Reticulitermes flavipes; assay: Termite immersion assay; type: in vivo; details: in vivo
# From the text: A series of whole organism bioassays was developed to further evaluate the toxicity of chemistries to a range of agricultural, veterinary and public health pests and non-target insects (Tables 12 and 13). These assays are designed to rapidly explore the biological activity spectrum of chemistries as well as to facilitate initial investigations of the mode of action of insecticidal compounds. Briefly, assays were developed for the German cockroach (Blatella germanica, urban pest), termite (Reticulitermes flavipes; urban pest), lone star tick (Amblyomma americana; veterinary and public health pest), soybean aphid (Aphis glycines, agricultural pest) and honeybee (Apis mellifera; beneficial, non-target insect). The assays were designed to test the toxicity and speed of kill of multiple chemistries on contact. Each of these assays was performed as a single point dose experiment in triplicate using either topical application of compound to the ventral thorax (1 μl of a […] compound solution in 1:1 v:v DMSO:EtOH vehicle; 50-80 μg effective dose depending on compound) as is the case for our cockroach and honeybee assays, or 10 second immersion in a solution of the compound diluted in water or DMSO:[…] The assays were conducted in 24-well plate format with mortality assessment following incubation at 22° C. as described above. Commercial insecticides were incorporated in these assays to provide a positive control and permit initial comparative analyses. Lead chemistries identified in our in vivo screen have been evaluated in the cockroach and termite assays.
# [18] = target: T2, AaDOP2; details: read-out: Affinity (Aedesdop2); values equal the Table 3 IC50 values
# [19] = system: adult male Blatella germanica; assay: Cockroach contact assay (topical application); type: in vivo; details: 200 mM compound
# From the text: (§1) A series of whole organism bioassays was developed to further evaluate the toxicity of chemistries to a range of agricultural, veterinary and public health pests and non-target insects (Tables 12 and 13). These assays are designed to rapidly explore the biological activity spectrum of chemistries as well as to facilitate initial investigations of the mode of action of insecticidal compounds. Briefly, assays were developed for the German cockroach (Blatella germanica, urban pest), termite (Reticulitermes flavipes; urban pest), lone star tick (Amblyomma americana; veterinary and public health pest), soybean aphid (Aphis glycines, agricultural pest) and honeybee (Apis mellifera; beneficial, non-target insect). The assays were designed to test the toxicity and speed of kill of multiple chemistries on contact. Each of these assays was performed as a single point dose experiment in triplicate using either topical application of compound to the ventral thorax ([…]; 50-80 μg effective dose depending on compound) as is the case for our cockroach and honeybee assays, or 10 second immersion in a solution of the compound diluted in water or DMSO:EtOH to a final concentration of 100 μM. The assays were conducted in 24-well plate format with mortality assessment following incubation at 22° C. as described above. Commercial insecticides were incorporated in these assays to provide a positive control and permit initial comparative analyses. Lead chemistries identified in our in vivo screen have been evaluated in the cockroach and termite assays.
# [20] = system: adult male Blatella germanica; assay: Cockroach assay of Table 16 (title contact assay, text feeding assay); type: in vivo; details: 200 mM compound
# From the text: as §1
# [21] = system: Ae. aegypti L3 larvae; assay: Ae. aegypti L3 concentration response and time course assays; type: in vivo, Aedes aegypti
# Procedure: Briefly, chemistries were diluted to appropriate concentration in water and added to the wells of 24-well plates containing 5 L3 stage Ae. aegypti larvae to achieve a final concentration of 400, 200, 100, 50 and 25 μM in 1 ml sterile RO water. Chemistries were tested in quadruplicate at each concentration. […] Results reported here represent a minimum of three independent CRC experiments (i.e., n=3).
# [22] = read-out: % Inhibition (of response to dopamine), Isdop2 screen
# [23] = 10 μM biogenic amine, 300 nM propranolol, cAMP accumulation, mean±standard error
# [24] = 10 μM antagonist with 1 μM dopamine
# [25] = 10 μM antagonist, 1 μM dopamine
# [26] = 10 μM antagonist with 1 μM dopamine, relative to dopamine alone
# [27] = 48 h, read-out: Toxicity to Aedes aegypti larvae (mortality) 48 hours, 400 μM, L3 larvae, three independent experiments
# [28] = 72 h, read-out: Toxicity to Aedes aegypti larvae (mortality) 72 hours, 400 μM, L3 larvae, three independent experiments
# T1 sequence (A0ACM8DGL0 entry or part of it): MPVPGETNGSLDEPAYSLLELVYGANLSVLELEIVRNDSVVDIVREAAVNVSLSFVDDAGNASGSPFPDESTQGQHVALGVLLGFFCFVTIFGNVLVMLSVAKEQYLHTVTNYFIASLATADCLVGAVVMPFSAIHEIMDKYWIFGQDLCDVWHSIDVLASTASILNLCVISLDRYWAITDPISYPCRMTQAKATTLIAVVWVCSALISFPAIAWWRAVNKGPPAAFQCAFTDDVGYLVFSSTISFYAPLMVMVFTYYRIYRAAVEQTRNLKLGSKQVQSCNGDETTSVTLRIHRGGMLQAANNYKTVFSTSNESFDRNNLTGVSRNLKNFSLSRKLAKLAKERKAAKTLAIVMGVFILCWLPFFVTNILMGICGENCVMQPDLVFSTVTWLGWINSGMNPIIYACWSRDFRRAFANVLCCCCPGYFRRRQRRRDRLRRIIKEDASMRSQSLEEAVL
# T2 sequence (H6D5H2 entry or part of it): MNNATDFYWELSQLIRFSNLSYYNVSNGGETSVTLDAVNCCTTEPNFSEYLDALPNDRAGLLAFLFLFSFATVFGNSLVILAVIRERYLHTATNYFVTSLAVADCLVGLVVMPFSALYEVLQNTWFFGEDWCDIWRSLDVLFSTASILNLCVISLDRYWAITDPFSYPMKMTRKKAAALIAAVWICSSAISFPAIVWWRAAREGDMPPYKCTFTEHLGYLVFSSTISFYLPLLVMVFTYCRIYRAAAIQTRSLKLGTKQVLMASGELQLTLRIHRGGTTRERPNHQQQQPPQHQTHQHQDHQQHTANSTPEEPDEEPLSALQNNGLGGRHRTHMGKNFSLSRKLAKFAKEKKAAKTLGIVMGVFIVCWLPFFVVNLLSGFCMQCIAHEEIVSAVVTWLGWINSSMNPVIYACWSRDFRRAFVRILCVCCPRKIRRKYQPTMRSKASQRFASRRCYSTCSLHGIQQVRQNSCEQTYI
# AaDOP1, sequence (H6D5H1 entry or part of it): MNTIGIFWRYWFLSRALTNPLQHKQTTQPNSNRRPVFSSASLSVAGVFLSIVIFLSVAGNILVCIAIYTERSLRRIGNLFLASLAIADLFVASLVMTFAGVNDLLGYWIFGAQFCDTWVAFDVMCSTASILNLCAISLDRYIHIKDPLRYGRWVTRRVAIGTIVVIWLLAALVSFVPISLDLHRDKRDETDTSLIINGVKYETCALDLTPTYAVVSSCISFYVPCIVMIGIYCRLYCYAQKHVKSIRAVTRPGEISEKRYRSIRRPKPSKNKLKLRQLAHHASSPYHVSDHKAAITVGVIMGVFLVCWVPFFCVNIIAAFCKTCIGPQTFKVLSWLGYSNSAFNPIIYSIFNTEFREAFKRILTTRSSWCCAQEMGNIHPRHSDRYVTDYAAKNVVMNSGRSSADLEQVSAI
compound,measurement,setting,value
"CN(C)CCC=C1c2ccccc2COc2ccccc21 (mixture of isomers) [Doxepin, ((Z)-3-(dibenzo[b,e]oxepin-11(6H)-ylidene)-N,N-dimethylpropan-1-amine)]",inhibition at 10 µM,[1]; [22],87%
same,mortality at 400 µM,[2],57%
NC[C@H](O)c1ccc(O)c(O)c1 [Norepinephrine],% of DHX,[3],86%
same,Stimulatory response (fold-over-basal) Isdop2,[4]; [23],2.43 ± 0.65 fold-over-basal
same,EC50,[5]; HEK293 cells stably expressing CRELuc reporter and AaDOP1,760 ± 180 nM
same,EC50,[6],2200 ± 300 nM
same,behaviour at the AaDOP2 receptor in follow up CRCs,"[7]; HEK 293-CRELuc cells, FIG. 21A",partial agonists
same,Stimulatory response (fold-over-basal) Isdop1,[8]; [23],1.46 ± 0.10 fold-over-basal
same,EC50,[9],4300 ± 1300 nM
Oc1ccc(C=Cc2cc(O)cc(O)c2)cc1 [Resveratrol],IC50,[10],≥ 10000 nM
same,% of the SCH23390 effect,[11],89%
same,inhibition at 10 µM,[1]; [22],100%
"CN1CCc2cc(Cl)c(O)cc2C(c2ccccc2)C1 (centres unmarked) [SCH23390, 8-chloro-3-methyl-5-phenyl-1,2,4,5-tetrahydro-3-benzazepin-7-ol]","effect on dopamine-stimulated cAMP, Isdop2",[4]; [24],antagonistic effects
same,inhibition of dopamine-mediated stimulation of AaDOP1,[5]; [25],robustly inhibited
same,inhibition of luciferase activity Isdop1,[6]; [26],74%
same,effect on constitutive activity of Isdop1,"[6]; antagonist alone, CRE-Luc",inhibition of the constitutive activity of Isdop1 was observed
same,% of the SCH23390 effect,[11],83%
same,inhibition of dopamine-mediated stimulation of AaDOP2,[7]; [25],robustly inhibited
same,inhibition at 10 µM,[1]; [22],77%
same,inhibition at 10 µM,[1]; read-out: average inhibitory effect of antagonist control across all sixteen plates,86 ± 6%
same,IC50,[12],120 nM
same,"effect on dopamine-stimulated cAMP, Isdop1",[8]; [24],significant reduction in levels of intracellular cAMP
same,IC50,[13],57 nM
same,inhibition of luciferase activity Isdop2,[9]; [26],69%
same,mortality at 400 µM,"[14]; 24 h, read-out: Toxicity to Aedes aegypti larvae (mortality) 24 hours, 400 μM, L3 larvae, three independent experiments",3%
same,mortality at 400 µM,[14]; [27],23%
same,mortality at 400 µM,[14]; [28],47%
same,IC50,[15],1300 nM
"OCCN1CCN(CC/C=C2/c3ccccc3Sc3ccc(C(F)(F)F)cc32)CC1 [cis-(Z)-Flupenthixol, ((Z)-2-(4-(3-(2-(trifluoromethyl)-9H-thioxanthen-9-ylidene)propyl)piperazin-1-yl)ethanol)]",Toxicity to Aedes aegypti larvae (mortality) 24 hours,[16],100%
same,% of the SCH23390 effect,[11],88%
same,mortality of adult termites,[17],70-100%
same,inhibition at 10 µM,[1]; [22],92%
same,IC50,[12],870 nM
same,IC50,[18],20 nM
same,% Mortality 24 hrs,[19],10%
same,% Mortality 48 hrs,[19],10%
same,% Mortality 72 hrs,[19],10%
same,% Mortality 120 hrs,[19],20%
same,% Mortality 240 hrs,[19],20%
same,% Mortality 24 hrs,[20],3%
same,% Mortality 48 hrs,[20],10%
same,% Mortality 72 hrs,[20],10%
same,% Mortality 120 hrs,[20],20%
same,IC50,[13],3700 nM
same,mortality at 400 µM,"[14]; 0.5 h, read-out: percent mortality 0.5 hr, 400 uM, L3 larvae, value for this scoring time",10%
same,mortality at 400 µM,"[14]; 1 h, read-out: percent mortality 1 hr, 400 uM, L3 larvae, per scoring time",30%
same,mortality at 400 µM,"[14]; 2 h, read-out: percent mortality 2 hr, 400 uM, L3 larvae, per scoring time",10%
same,mortality at 400 µM,"[14]; 3 h, read-out: mortality within three hours, 400 μM, L3 larvae",> 70%
same,mortality at 400 µM,"[14]; 3 h, read-out: percent mortality 3 hr, 400 uM, L3 larvae, per scoring time",10%
same,mortality at 400 µM,"[14]; 4 h, read-out: percent mortality 4 hr, 400 uM, L3 larvae, per scoring time",0%
same,mortality at 400 µM,"[14]; 24 h, read-out: percent mortality 24 hr, 400 uM, L3 larvae, per scoring time",0%
same,mortality at 400 µM,[14]; [27],100%
same,mortality at 400 µM,"[14]; 48 h, read-out: percent mortality 48 hr, 400 uM, L3 larvae, per scoring time",0%
same,mortality at 400 µM,"[14]; 72 h, read-out: Cumulative % Mortality (72 hrs), 400 uM, L3 larvae",100%
same,mortality at 400 µM,[14]; [28],100%
same,mortality at 400 µM,"[14]; 72 h, read-out: percent mortality 72 hr, 400 uM, L3 larvae, per scoring time",0%
same,LT50,"[21]; 400 μM, L3 larval time course assay",54 min
same,LC50,[21]; Aedes aegypti,88000 nM
same,IC50,[15],0.35 ± 0.07 nM
